Data as given in EP4574149A1, “COMPOSITION OF RAPAMYCIN, DIMETHYLSULPHOXIDE AND WATER FOR USE IN THE TREATMENT OF FATTY LIVER DISEASE” (Assistance Publique - Hôpitaux de Paris, priority 2023, dated 2025).

Tests used:
[1] = Solubility study of rapamycin in DMSO/H2O mixtures; format: physicochemical
Method: Une étude de solubilité a été réalisée sur des mélanges DMSO/H2O, de 40% à 100% (v/v) en DMSO et des concentrations en rapamycine comprises entre 0,4 et 4 mg/mL.
L'évaluation de la solubilisation de rapamycine en fonction de différentes concentrations de DMSO est présentée au Tableau 3 ci-dessous : Tableau 3 : Evaluation de la solubilisation de rapamycine en fonction de différentes concentrations de DMSO.
A la suite de ces résultats, une nouvelle étude a été lancée sur un intervalle plus restreint en DMSO, avec 3 niveaux de concentrations (70%; 85%; 100%) et les 3 mêmes niveaux de rapamycine (0,4; 1; 4 mg/mL) (Tableau 4). Tableau 4 : Evaluation de la solubilisation de rapamycine dans des concentrations de DMSO à 70%, 85% et 100%.

[2] = tested on: hépatocytes; test: Defatting effect of rapamycin on hepatocyte cultures (Example 2); format: cell-based; details: rapamycine 200nM, hepatocytes, read-out: diminution du taux de triglycérides intracellulaires par rapport au contrôle
Method: (§1) La rapamycine a été évaluée sur des cultures d'hépatocytes et sur tissus hépatiques (tranches de foies permettant de garder la structure hépatique). Pour une concentration de rapamycine à 200nM, il était observé une diminution de 19% du taux de triglycérides intracellulaires par rapport au contrôle dans les hépatocytes et de 38% dans les tissus hépatiques. Ces résultats répétés plusieurs fois ont permis de confirmer la preuve de concept de l'effet de la rapamycine sur l'effet « dégraissant ».

[3] = tested on: tissus hépatiques; test: Defatting effect of rapamycin on hepatic tissues, liver slices (Example 2); format: cell-based; details: rapamycine 200nM, read-out: diminution du taux de triglycérides intracellulaires par rapport au contrôle
Method: as §1

[4] = Perfusion circuit without organ: rapamycin concentration in whole blood perfusate; format: in vitro ADME, humain; details: whole human blood perfusate at 37°C, no organ; theoretical target 180 ng/mL; 4 experiments
Method: Une machine de perfusion hépatique a été utilisée avec du perfusat constitué de sang total humain maintenu à 37°C. La rapamycine a été injectée directement dans le circuit de perfusion. Des prélèvements étaient réalisés à intervalles réguliers pour doser la molécule. L'expérience a été réalisée 4 fois, l'objectif étant de valider la concentration cible théorique de 180 ng/mL définie à partir des études précédentes d'efficacité et de toxicité.

[5] = Perfusion circuit with pig liver: pharmacokinetics of rapamycin; format: in vitro ADME, cochon; details: pig liver on perfusion machine
Method: Le même protocole de perfusion a été utilisé mais avec un foie animal. Celui-ci a été prélèvé chez un cochon en arrêt cardiaque puis préservé dans de la glace. Il a ensuite été mis sur machine de perfusion, initialement en hypothermie (4°C) pendant 2 heures puis à 37°C pendant 12 heures avec une phase de réchauffement intermédiaire (sub normothermie, 21°C). La rapamycine était injectée dans le circuit 2 heures après le début de la phase de normothermie. Neuf expériences ont été réalisées. L'objectif était d'avoir une étude pharmacocinétique de la rapamycine.

[6] = tested on: foies humains; test: Perfusion circuit with steatotic human livers: intracellular triglycerides and pharmacokinetics; details: for diminution du taux de triglycérides intra cellulaires: steatosis > 50%
From the text: De la même manière, l'expérience a été réalisée avec deux foies humains jugés non transplantables et utilisés à visée scientifique après autorisation de l'Agence de Biomédecine. […] L'évaluation de la viabilité de ces deux organes ont été faites selon des critères validés en pratique clinique. […] Pour ce faire, les triglycérides intra cellulaires ont été dosés.

[7] = in DMSO (Simamora P et al., 2001); cited from earlier work

CO[C@H]1C[C@@H]2CC[C@@H](C)[C@@](O)(O2)C(=O)C(=O)N2CCCC[C@H]2C(=O)O[C@H]([C@H](C)C[C@@H]2CC[C@@H](O)[C@H](OC)C2)CC(=O)[C@H](C)/C=C(\C)[C@@H](O)[C@@H](OC)C(=O)[C@H](C)C[C@H](C)/C=C/C=C/C=C/1C [Rapamycine, rapamycine]
Solubilité à température ambiante ([1]; DMSO/H2O 40 % volumique, [Rapamycine] 0,4 mg/mL): Non (aspect laiteux avec cristaux
Solubilité à température ambiante ([1]; DMSO/H2O 40 % volumique, [Rapamycine] 1 mg/mL): Non (aspect laiteux avec cristaux
Solubilité à température ambiante ([1]; DMSO/H2O 40 % volumique, [Rapamycine] 4 mg/mL): Non (aspect laiteux avec cristaux
Solubilité à température ambiante ([1]; DMSO/H2O 60 % volumique, [Rapamycine] 0,4 mg/mL): Oui
Solubilité à température ambiante ([1]; DMSO/H2O 60 % volumique, [Rapamycine] 1 mg/mL): Oui
Solubilité à température ambiante ([1]; DMSO/H2O 60 % volumique, [Rapamycine] 4 mg/mL): Non (aspect laiteux avec cristaux
Solubilité à température ambiante ([1]; DMSO/H2O 80 % volumique, [Rapamycine] 0,4 mg/mL): Oui
Solubilité à température ambiante ([1]; DMSO/H2O 80 % volumique, [Rapamycine] 1 mg/mL): Oui
Solubilité à température ambiante ([1]; DMSO/H2O 80 % volumique, [Rapamycine] 4 mg/mL): Oui
Solubilité à température ambiante ([1]; DMSO/H2O 100 % volumique, [Rapamycine] 0,4 mg/mL): Oui
Solubilité à température ambiante ([1]; DMSO/H2O 100 % volumique, [Rapamycine] 1 mg/mL): Oui
Solubilité à température ambiante ([1]; DMSO/H2O 100 % volumique, [Rapamycine] 4 mg/mL): Oui
Solubilité à température ambiante ([1]; second study (Tableau 4), DMSO/H2O 70 % volumique, [Rapamycine] 0,4 mg/mL): Oui
Solubilité à température ambiante ([1]; second study (Tableau 4), DMSO/H2O 70 % volumique, [Rapamycine] 1 mg/mL): Oui
Solubilité à température ambiante ([1]; second study (Tableau 4), DMSO/H2O 70 % volumique, [Rapamycine] 4 mg/mL): Oui
Solubilité à température ambiante ([1]; second study (Tableau 4), DMSO/H2O 85 % volumique, [Rapamycine] 0,4 mg/mL): Oui
Solubilité à température ambiante ([1]; second study (Tableau 4), DMSO/H2O 85 % volumique, [Rapamycine] 1 mg/mL): Oui
Solubilité à température ambiante ([1]; second study (Tableau 4), DMSO/H2O 85 % volumique, [Rapamycine] 4 mg/mL): Oui
Solubilité à température ambiante ([1]; second study (Tableau 4), DMSO/H2O 100 % volumique, [Rapamycine] 0,4 mg/mL): Oui
Solubilité à température ambiante ([1]; second study (Tableau 4), DMSO/H2O 100 % volumique, [Rapamycine] 1 mg/mL): Oui
Solubilité à température ambiante ([1]; second study (Tableau 4), DMSO/H2O 100 % volumique, [Rapamycine] 4 mg/mL): Oui
inhibition at 0.2 µM [2]: 19%
inhibition at 0.2 µM [3]: 38%
concentration moyenne de rapamycine [4]: 150 ± 30 ng/mL
time after injection from which rapamycin is found in bile ([5]; bile, increases during perfusion): 1 heure
Tmax ([5]; whole blood and plasma, 37°C, read-out: pic de concentration (time after injection) (converted)): 5 min
diminution du taux de triglycérides intra cellulaires ([6]; foie N°1, 9 heures after injection of rapamycin): 39%
diminution du taux de triglycérides intra cellulaires ([6]; foie N°2): 31%
pharmacocinétique ([6]; human livers on perfusion machine): identique à celle observée lors de la perfusion des foies de cochon
solubilité [7]: > 250 mg/mL
